Reference: PMC9170106, “Pre-clinical evaluation of LASSBio-1491: From in vitro pharmacokinetic study to in vivo leishmanicidal activity” (PLoS ONE, 2022)
“And” between values parts separate entries of the source, which are not always exact repeats. Equal entries are not always repeated.

Experiments:
[1] = Plasma stability; assay type: in vitro ADME, rat
Description: For analysis of plasma stability, the LASSBio-1491 in a final concentration of 5 μM from stock solution of 1 mM, was added in 50 μL of rat plasma solution diluted in 250 μL with PBS (pH 7.4) and was placed in a shaker at 37 °C under vigorous stirring for 0, 30, 60, 120 and 240 minutes. After each reaction time, 500 μL of cold methanol and 500 μL of cold acetonitrile containing 5 uM of methyl 1,1’biphenyl-4-carboxylate 5 μM (internal standard) were added to the wells to stop the reaction. The solution was mixed and centrifuged at 24500 x g for 15 min (Universal centrifuge 320R Hettich®). The supernatant (1 mL) was filtrated and placed in vials to be analyzed by HPLC-PDA, Shimadzu—LC20AD, Kromasil C-18 column (4.6 mm x 250 mm, 5 μm), SPD M20A diode array detector, flow 1 mL/min, mobile phase acetonitrile: water 1:1 (v/v) for LASSBio-1491 and acetonitrile: water 60:40 (v/v) for LASSBio-1736, for 20 minutes at 254 nm wavelength.

[2] = Microsomal metabolism; assay type: in vitro ADME; conditions: rat liver microsomes, without NADPH regenerating system
[3] = PAMPA-GIT permeability; conditions: PAMPA-GIT conditions
Source text: (§1) The parallel artificial membrane permeability assay uses 96-well plate in a “sandwich” type system, where one plate overlaps the other (PAMPA). […] The lipid mixture that impregnates the PVDF filter has a different constitution for the permeability tests for the blood-brain barrier (Brain lipid from pig extract in dodecane) and gastro-intestinal tract (L-α soy phosphatidylcholine in dodecane). In the PAMPA BBB and TGI assays, the optical density values obtained in the reading at each selected wavelength, for each of the compounds were analyzed in comparison with the values of several controls. In the case of the BBB, these values were used to elaborate an equation and determine the permeability coefficient (Pe), using a previously elaborated spreadsheet, and, for the TGI, these values were used to determine the absorbed fraction (Fa%), both using the Excel® program.

[4] = Aqueous solubility by UV spectroscopy; assay type: physicochemical; conditions: phosphate buffer solution, buffer solution pH 7.4, 37 °C
Description: The solubility assay was carried out by correlating the concentration with the absorbance obtained by ultraviolet. First, a stock solution of the compound was prepared by dissolving 1 mg in 20 mL of methanol, and then the wavelength of greatest absorption of each compound was obtained by scanning between wavelengths from 200 nm to 500 nm. From the stock solution, six dilutions were prepared (dilution factor: 2.5), and the absorbance reading was performed in quartz cuvettes (10 mm optical path) in the UV-VIS spectrophotometer (Femto 800XI) at the previously determined wavelength. With the values obtained, a calibration curve with linear regression was made, in which the linearity of the analytical method is observed, with values of correlation coefficient (p > 0.95).
The compound was dissolved in a phosphate buffer solution (pH 7.4), prepared according to the Brazilian Pharmacopoeia (Vol.1) to obtain a supersaturated solution. The supersaturated aqueous solution was kept under stirring for 4 hours at 37°C and then the sample was filtered on a 0.45 μm filter to carry out the reading at the corresponding wavelength of the compound. The solubility was then determined through the equation of the straight line obtained by the linear regression of the calibration curve of each compound [19].

[5] = Microsomal metabolism; assay type: in vitro ADME; conditions: rat liver microsomes
Description: The study of the microsomal metabolism of the compounds was evaluated by placing 1 mg/ml rat liver microsome in a microcentrifuge tube, in the presence of a NADPH generator system (1 mM NADP^+, 1.5 mM MgCl2, 3.5 mM glucose-6-phosphate and 0.5 U/mL glucose-6-phosphate dehydrogenase) and phosphate buffer pH 7.4 in sufficient quantity for 250 μL. After 15 minutes of pre-incubation at 37°C in a water bath, the enzymatic reactions were started by adding 2 μL of a stock solution 1 mM from one of the prototypes (500 μL 20% DMSO 80% CH3CN), so that a final concentration of 5 μM was reached (0.2% DMSO, 0.8% acetonitrile).
Then, the samples were again incubated at 37°C under agitation for predetermined and fixed periods (0, 15, 30, 45 and 60 minutes). At the end of the incubation period 500 μL of cold methanol and 500 μL of cold acetonitrile containing 5 μM of methyl 1,1’biphenyl-4-carboxylate 5 μM (internal standard) were added to the wells to stop the reaction and the samples were homogenized and kept in an ice bath to accelerate protein precipitation. The mixture was centrifuged at 24500 x g for 15 minutes at 4°C (Universal centrifuge 320R Hettich®). Finally, the supernatant (1 mL) was filtrated and placed in vials to be analyzed by HPLC-PDA, Shimadzu—LC20AD, Kromasil C-18 column (4.6 mm x 250 mm, 5 μm), SPD M20A diode array detector, flow 1 mL/min, mobile phase acetonitrile: water 1:1 (v/v) for LASSBio-1491 and acetonitrile: water 60:40 (v/v) for LASSBio-1736, 20 minutes at 254 nm wavelength. Then, the microsomal half-life and clearance were calculated.

[6] = set-up: method as in PMID 35497630; conditions: cited from earlier work
[7] = PAMPA-BBB permeability
Source text: as §1

[8] = set-up: method as in PMID 35497630, PMID 29160126; conditions: cited from earlier work
[9] = test system: peritoneal macrophages infected with L. major LV39; assay: Nitrite measurement (Griess reaction) in infected macrophages; assay type: cell-based, BALB/c mice; conditions: BALB/c macrophages infected with L. major LV39
Description: Briefly, female BALB/c mice (6 to 8 weeks old) received 1 mL sterile of 3% sodium thioglycolate by intraperitoneal route (i.p.) and were euthanized after 4 days. The intraperitoneal lavage was collected from the peritoneal cavity of mice using sterile PBS and cells were counted in a hemocytometer. Peritoneal adherent cells (macrophages) were plated at a concentration of 2 x 10^5 cells per well in 24-well culture plates containing glass coverslips. Subsequently, L. major promastigotes (harvested after the third passage) were added at a concentration of 2 x 10^6 parasites per well, aiming to infect the macrophages. […] After 24 hours in an incubator at 37 °C and 5% CO2, the coverslips were washed with PBS and stained with Giemsa-May Grünwald. The number of amastigotes in 100 macrophages was determined by counting using optical microscope (100x objective). Furthermore, the cell culture supernatant was also collected for nitrite measurement using the Griess reaction, an indirect way of determining the concentration of nitric oxide in the supernatant of infected macrophages from the experimental groups. The results obtained were expressed as the mean ± S.E.M. of the number of amastigotes or nitrite concentration from duplicate cultures of representative assays, with the data analyzed by ANOVA and Dunnett hoc tests, considering a significance level of p < 0.05. […]

[10] = test system: L. major amasitigote 5-ASKH substrain; assay: In vitro activity against intramacrophage amastigotes, 5-ASKH; assay type: cell-based; conditions: Leishmania major
Description: (§2) Briefly, female BALB/c mice (6 to 8 weeks old) received 1 mL sterile of 3% sodium thioglycolate by intraperitoneal route (i.p.) and were euthanized after 4 days. The intraperitoneal lavage was collected from the peritoneal cavity of mice using sterile PBS and cells were counted in a hemocytometer. Peritoneal adherent cells (macrophages) were plated at a concentration of 2 x 10^5 cells per well in 24-well culture plates containing glass coverslips. Subsequently, L. major promastigotes (harvested after the third passage) were added at a concentration of 2 x 10^6 parasites per well, aiming to infect the macrophages. […] After 24 hours in an incubator at 37 °C and 5% CO2, the coverslips were washed with PBS and stained with Giemsa-May Grünwald. The number of amastigotes in 100 macrophages was determined by counting using optical microscope (100x objective). Furthermore, the cell culture supernatant was also collected for nitrite measurement using the Griess reaction, an indirect way of determining the concentration of nitric oxide in the supernatant of infected macrophages from the experimental groups. The results obtained were expressed as the mean ± S.E.M. of the number of amastigotes or nitrite concentration from duplicate cultures of representative assays, with the data analyzed by ANOVA and Dunnett hoc tests, considering a significance level of p < 0.05. In addition, the linear regression analysis from the Kc values at employed concentrations was used to determine the IC50.

[11] = test system: spleen cells; assay: Cytotoxicity against spleen cells (propidium iodide); conditions: Mus musculus, 24 h
Description: To carry out the suspension preparation of spleen cells, BALB/c mice were euthanized, and an incision was made to remove the spleen. The spleens were macerated using the end of the plungers from a 1 mL syringe in a 70 μm strainer placed in a Petri dish containing RPMI medium. […] After incubation for 4 min at room temperature, the cells were washed with RPMI medium. Subsequently, samples from three animals were pooled and the cell suspension was passed through a 40 μm strainer. Cells were counted in a Neubauer chamber and splenocytes were plated at a concentration of 5 x 10^5 cells per well in a 96-well culture plate. […] Moreover, spleen cells were also cultured just with medium (free of compounds or vehicle) or with DMSO 0.1%. […] After, the propidium iodide incorporation was performed according to the instructions of the Propidium Iodide Kit (Sigma, Copenhagen, Denmark). The splenocytes were analyzed in a FACS Canto II flow cytometer. The data files were saved using FACS Diva software and data analysis was done using Flow Jo software. […] Data obtained from experiments were expressed as the mean ± standard error of the mean (S.E.M.) of spleen died cells and statistical differences between the treated and the vehicle groups of experiments were evaluated by ANOVA and Dunnett hoc tests.

[12] = test system: L. major amastigote LV39 substrain; assay: In vitro activity against intramacrophage amastigotes, LV39; assay type: cell-based; conditions: Leishmania major
Description: as §2

[13] = test system: L. major promastigote LV39 substrain; assay: In vitro activity against promastigotes, LV39; assay type: cell-based; conditions: Leishmania major
Description: (§3) L. major promastigotes LV39 (MRHO/SU/59/P) were obtained from João […] Preto Medical School- USP. L. major IOC/[…] promastigotes (MHOM/SU/1973/5-ASKH) were obtained from Leishmania collection of the Oswaldo Cruz Institute-Fiocruz. L. major promastigotes LV39 (MRHO/SU/59/P) and L. major IOC/[…] (MHOM/SU/1973/5-ASKH) were grown in a Schneider's medium (Sigma-Aldrich, St. […] The determination of the leishmanicidal activity of LASSBio-1491 against L. major promastigotes was carried out according to the methodology described by […] and colleagues (1996). […] After 48h of incubation in a Biochemical Oxygen Demand (B.O.D.) incubator, the promastigotes were counted using a hemocytometer. The results obtained were expressed as the mean ± S.E.M. of the number of promastigotes from triplicate cultures of representative assays, with the data analyzed by ANOVA and Dunnett hoc tests, considering a significance level of p < 0.05.

[14] = test system: L. major promastigote 5-ASKH substrain; assay: In vitro activity against promastigotes, 5-ASKH; assay type: cell-based, Leishmania major; conditions: Leishmania major
Description: as §3

**Q.** What does the source list for `O=C(N/N=C/c1ccc(C(F)(F)F)cc1)NNC(=O)c1ccc(Cl)cc1Cl` [LASSBio-1736]?
**A.** Elimination rate constant (k) ([1]; rat plasma): 0.0004; t1/2 ([1]; rat plasma): 28.9 h; Metabolism rate ([1]; rat plasma, 5 μM, 37 °C, up to 240 min): 7.30%; half-life at 5 μM ([1]; rat, rat plasma diluted with PBS, pH 7.4, rat plasma): 19.2 h; recovery at 5 μM ([1]; rat, rat plasma diluted with PBS, pH 7.4, read-out: Recovery rate): 59.9%; Metabolism rate non co-factor [2]: 5.81%; solubility in the PAMPA-GIT experimental set [3]: insoluble; solubility at 4 h [4]: 0.26 µM and 0.109 µg/mL; half-life at 5 μM ([5]; pH 7.4, with co-factor): 3.5 h; microsomal CLint at 5 μM ([5]; pH 7.4, with co-factor, Volume x (0,693/t1/2)): 0.825 µL/min/mg; Metabolism rate with co-factor ([5]; with NADPH regenerating system): 18.33%; Elimination rate constant (k) ([5]; with co-factor): 0.0033; Clapp ([5]; with co-factor, scaled to liver and rat weight): 0.128 mL/min/kg; signals of hepatic or renal toxicity [6]: no preliminary signals of hepatic or renal toxicity; Papp ([7]; PAMPA): 10.6 ×10⁻⁶ cm/s; Classification ([7]; PAMPA-BBB): CNS+; stability in rat plasma [8]: great stability in rat plasma

**Q.** Which results are given for `N=C(N)c1ccc(OCCCCCOc2ccc(C(=N)N)cc2)cc1` [Pentamidine, reference compound]?
**A.** NO production (nitrite) [9]: did not; IC50 ([10]; Macrophage, amastigote 5-ASKH in macrophages, 24 h): 17.1 ± 5.6 µM; Emax ([10]; amastigote 5-ASKH, read-out: Maximum effect (% ± S.E.M.)): 53.8 ± 1.1%; IC50 [11]: > 100 µM; IC50 ([12]; Macrophage, amastigote LV39 in macrophages, 24 h): 8.1 ± 0.9 µM; Emax ([12]; amastigote LV39, read-out: Maximum effect (% ± S.E.M.)): 63.2 ± 2.9%; IC50 ([13]; promastigote LV39, 48 h): 5.7 ± 0.2 µM; Emax ([13]; promastigote LV39, read-out: Maximum effect (% ± S.E.M.)): 88.1 ± 0.1%; IC50 ([14]; 48 h): 0.8 ± 0.1 µM; Emax ([14]; read-out: Maximum effect (% ± S.E.M.)): 72.6 ± 2%
